Consider 43 compounds from ChEMBL document CHEMBL1135903 (J Med Chem, 2002).

Each structure is given as a SMILES string. pKi: −log10 of the molar value.

As a reminder, the pKi is −log10 of the Ki, conventionally taken in molar units. Read a low pKi as a large Ki.

One test has as its target T1, Carbonic anhydrase 4 (Bos taurus, UniProt Q95323).
T1 sequence (Q95323 whole entry): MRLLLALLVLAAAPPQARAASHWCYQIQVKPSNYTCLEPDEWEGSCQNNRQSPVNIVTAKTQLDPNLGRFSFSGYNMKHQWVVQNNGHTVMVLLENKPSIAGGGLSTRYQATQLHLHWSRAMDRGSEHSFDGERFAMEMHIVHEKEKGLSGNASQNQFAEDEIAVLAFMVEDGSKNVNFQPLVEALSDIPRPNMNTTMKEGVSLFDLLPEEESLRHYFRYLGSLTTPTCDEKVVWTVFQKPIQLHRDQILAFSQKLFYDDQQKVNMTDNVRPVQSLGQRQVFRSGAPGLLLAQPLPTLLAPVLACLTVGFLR

In another test the target is Carbonic anhydrase 1 (Homo sapiens, UniProt P00915).
Chain of Carbonic anhydrase 1 (P00915 whole entry): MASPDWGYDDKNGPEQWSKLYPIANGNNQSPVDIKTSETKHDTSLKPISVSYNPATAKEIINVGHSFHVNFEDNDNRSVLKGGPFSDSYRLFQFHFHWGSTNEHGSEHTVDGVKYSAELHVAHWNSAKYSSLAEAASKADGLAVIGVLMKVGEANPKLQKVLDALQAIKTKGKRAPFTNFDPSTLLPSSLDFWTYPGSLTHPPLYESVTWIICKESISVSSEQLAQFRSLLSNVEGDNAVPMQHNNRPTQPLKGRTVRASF

Description for Carbonic anhydrase 1: Inhibitory activity against Human carbonic anhydrase I
Description for Carbonic anhydrase 4: Inhibitory activity against bovine carbonic anhydrase IV

Regarding `Cn1nc(S(N)(=O)=O)s/c1=N/C(=O)CNCCNCC(=O)O`, the values for the pKi on Carbonic anhydrase 4 and at Carbonic anhydrase 1 were 7.12 and 6.56, respectively.

As for `NS(=O)(=O)c1nc2ccc(OCCOC(=O)CN(CCN(CC(=O)O)CC(=O)O)CC(=O)O)cc2s1`, the figures for the pKi at Carbonic anhydrase 4 and on Carbonic anhydrase 1 were 8.10 and 7.41, respectively.

Regarding `NS(=O)(=O)c1ccccc1NC(=O)CNCCNCC(=O)O`, the values for the pKi at Carbonic anhydrase 4 and at Carbonic anhydrase 1 were 5.99 and 4.69, respectively.

`NS(=O)(=O)c1nc2ccc(OC(=O)CNCC(=O)O)cc2s1`: the results for the pKi at Carbonic anhydrase 4 and on Carbonic anhydrase 1 were 7.85 and 7.30, respectively.

In the case of `NS(=O)(=O)c1ccccc1NC(=O)CN(CCOCCOCCN(CC(=O)O)CC(=O)Nc1ccccc1S(N)(=O)=O)CC(=O)O`, the negative-log Ki (pKi) on Carbonic anhydrase 4 was 6.49; at Carbonic anhydrase 1, 5.25.

Regarding `NS(=O)(=O)c1cc(S(N)(=O)=O)c(NC(=O)CN(CCN(CC(=O)O)CC(=O)Nc2cc(Cl)c(S(N)(=O)=O)cc2S(N)(=O)=O)CC(=O)O)cc1Cl`, the figures for the negative logarithm of the Ki (pKi) at Carbonic anhydrase 4 and at Carbonic anhydrase 1 were 7.16 and 7.14, respectively.

As for `NS(=O)(=O)c1ccc(COC(=O)CN(CCN(CC(=O)O)CC(=O)O)CC(=O)O)cc1`, the pKi on Carbonic anhydrase 4 is 6.47; at Carbonic anhydrase 1, 6.07.

On to `NS(=O)(=O)c1ccc(NC(=O)CN(CCN(CC(=O)O)CC(=O)Nc2ccc(S(N)(=O)=O)cc2Br)CC(=O)O)c(Br)c1`, for which the pKi is 7.47 on Carbonic anhydrase 4 and 6.98 on Carbonic anhydrase 1.

Turning to `NS(=O)(=O)c1ccc(COC(=O)CNCCNCC(=O)O)cc1`, the pKi was 6.46 at Carbonic anhydrase 4 and 5.99 at Carbonic anhydrase 1.

As to `NS(=O)(=O)c1ccccc1NC(=O)CN(CCN(CC(=O)O)c1ccccc1O)c1ccccc1O`, the pKi on Carbonic anhydrase 4 is 6.10; at Carbonic anhydrase 1, 4.90.

`NS(=O)(=O)c1ccc(NC(=O)CNCCNCC(=O)O)c(Cl)c1`: the results for the pKi on Carbonic anhydrase 4 and at Carbonic anhydrase 1 were 6.81 and 6.05, respectively.

With `NS(=O)(=O)c1nc2ccc(NC(=O)CN(CCN(CC(=O)O)c3ccccc3O)c3ccccc3O)cc2s1`, the figures for the negative logarithm of the Ki (pKi) on Carbonic anhydrase 4 and at Carbonic anhydrase 1 were 7.89 and 7.28, respectively.

As for `NS(=O)(=O)c1ccc(NC(=O)CNCCNCC(=O)O)c(I)c1`, the pKi is 6.94 at Carbonic anhydrase 4 and 6.37 at Carbonic anhydrase 1.

As for `NS(=O)(=O)c1nc2ccc(OCCOC(=O)CN(CCOCCOCCN(CC(=O)O)CC(=O)OCCOc3ccc4nc(S(N)(=O)=O)sc4c3)CC(=O)O)cc2s1`, the results for the pKi on Carbonic anhydrase 4 and on Carbonic anhydrase 1 were 8.30 and 7.82, respectively.

Regarding `NS(=O)(=O)c1ccc(NC(=O)CN(CCN(CC(=O)O)c2ccccc2O)c2ccccc2O)c(Cl)c1`, the figures for the pKi on Carbonic anhydrase 4 and at Carbonic anhydrase 1 were 6.97 and 6.06, respectively.

In the case of `NS(=O)(=O)c1ccc(COC(=O)CN(CC(=O)O)CC(=O)O)cc1`, the pKi on Carbonic anhydrase 4 is 6.46; on Carbonic anhydrase 1 it was 5.92.

In the case of `NS(=O)(=O)c1ccc(NC(=O)CN(CCN(CC(=O)O)c2ccccc2O)c2ccccc2O)cc1`, the pKi at Carbonic anhydrase 4 is 6.49; at Carbonic anhydrase 1 it was 4.94.

As for `NS(=O)(=O)c1ccc(NC(=O)CNCCNCC(=O)O)cc1`, the results for the negative logarithm of the Ki (pKi) on Carbonic anhydrase 4 and on Carbonic anhydrase 1 were 6.44 and 4.92, respectively.

Regarding `NS(=O)(=O)c1nc2ccc(OC(=O)CN(CCN(CC(=O)O)c3ccccc3O)c3ccccc3O)cc2s1`, the pKi on Carbonic anhydrase 4 was 7.92; at Carbonic anhydrase 1 it was 7.33.

Take `NS(=O)(=O)c1ccc(NNC(=O)CN(CCOCCOCCN(CC(=O)O)CC(=O)NNc2ccc(S(N)(=O)=O)cc2)CC(=O)O)cc1`: the values for the pKi at Carbonic anhydrase 4 and on Carbonic anhydrase 1 were 6.40 and 5.02, respectively.

With `NS(=O)(=O)c1nnc(NC(=O)CN(CCOCCOCCN(CC(=O)O)CC(=O)Nc2nnc(S(N)(=O)=O)s2)CC(=O)O)s1`, the pKi on Carbonic anhydrase 4 is 8.40; at Carbonic anhydrase 1, 7.26.

For the compound `NS(=O)(=O)c1nc2ccc(NC(=O)CN(CCOCCOCCN(CC(=O)O)CC(=O)Nc3ccc4nc(S(N)(=O)=O)sc4c3)CC(=O)O)cc2s1`, the pKi at Carbonic anhydrase 4 is 8.40; at Carbonic anhydrase 1, 7.64.

For `NS(=O)(=O)c1ccc(NC(=O)CN(CCOCCOCCN(CC(=O)O)CC(=O)Nc2ccc(S(N)(=O)=O)cc2Cl)CC(=O)O)c(Cl)c1`, the pKi is 7.66 on Carbonic anhydrase 4 and 6.82 on Carbonic anhydrase 1.

Turning to `NS(=O)(=O)c1nnc(NC(=O)CCNC(=O)CN(CCOCCOCCN(CC(=O)O)CC(=O)NCCC(=O)Nc2nnc(S(N)(=O)=O)s2)CC(=O)O)s1`, the pKi on Carbonic anhydrase 4 is 8.22; on Carbonic anhydrase 1 it was 7.12.

With `NS(=O)(=O)c1nc2ccc(OC(=O)CN(CC(=O)O)CC(=O)O)cc2s1`, the figures for the pKi at Carbonic anhydrase 4 and at Carbonic anhydrase 1 were 7.89 and 7.32, respectively.

For `NS(=O)(=O)c1cc(S(N)(=O)=O)c(NC(=O)CN(CCN(CC(=O)O)c2ccccc2O)c2ccccc2O)c(Cl)c1Cl`, the figures for the pKi at Carbonic anhydrase 4 and on Carbonic anhydrase 1 were 6.98 and 6.60, respectively.

In the case of `Cn1nc(S(N)(=O)=O)s/c1=N/C(=O)CN(CCOCCOCCN(CC(=O)O)CC(=O)/N=c1/sc(S(N)(=O)=O)nn1C)CC(=O)O`, the pKi on Carbonic anhydrase 4 is 8.15; on Carbonic anhydrase 1, 7.49.

`NS(=O)(=O)c1ccc(CCOC(=O)CN(CCN(CC(=O)O)CC(=O)O)CC(=O)O)cc1`: the pKi is 6.51 at Carbonic anhydrase 4 and 6.19 on Carbonic anhydrase 1.

Take `NS(=O)(=O)c1ccc(NC(=O)CN(CCOCCOCCN(CC(=O)O)CC(=O)Nc2ccc(S(N)(=O)=O)cc2I)CC(=O)O)c(I)c1`: the pKi at Carbonic anhydrase 4 is 7.70; at Carbonic anhydrase 1 it was 7.12.

`NS(=O)(=O)c1nc2ccc(NC(=O)CN(CCN(CC(=O)O)CC(=O)Nc3ccc4nc(S(N)(=O)=O)sc4c3)CC(=O)O)cc2s1`: the results for the pKi at Carbonic anhydrase 4 and at Carbonic anhydrase 1 were 8.05 and 7.48, respectively.

`Cn1nc(S(N)(=O)=O)s/c1=N/C(=O)CN(CCN(CC(=O)O)c1ccccc1O)c1ccccc1O`: the pKi is 7.24 at Carbonic anhydrase 4 and 6.60 at Carbonic anhydrase 1.

Consider `NS(=O)(=O)c1ccc(NC(=O)CN(CCN(CC(=O)O)CC(=O)O)CC(=O)O)c(I)c1`, for which the pKi is 7.11 at Carbonic anhydrase 4 and 6.91 on Carbonic anhydrase 1.

Take `NS(=O)(=O)c1ccc(NC(=O)CN(CCN(CC(=O)O)c2ccccc2O)c2ccccc2O)c(F)c1`: the pKi was 7.10 on Carbonic anhydrase 4 and 6.35 at Carbonic anhydrase 1.

On to `NS(=O)(=O)c1ccc(NC(=O)CN(CCN(CC(=O)O)CC(=O)Nc2ccc(S(N)(=O)=O)cc2Cl)CC(=O)O)c(Cl)c1`, for which the pKi at Carbonic anhydrase 4 is 7.30; at Carbonic anhydrase 1 it was 6.65.

As to `NS(=O)(=O)c1ccc(NC(=O)CNCC(=O)O)c(Br)c1`, the pKi is 7.24 on Carbonic anhydrase 4 and 6.21 on Carbonic anhydrase 1.

For `NS(=O)(=O)c1ccc(NC(=O)CNCC(=O)O)c(Cl)c1`, the pKi on Carbonic anhydrase 4 was 6.78; at Carbonic anhydrase 1, 6.01.

Regarding `NS(=O)(=O)c1cc(S(N)(=O)=O)c(NC(=O)CN(CCN(CC(=O)O)c2ccccc2O)c2ccccc2O)cc1Cl`, the figures for the pKi at Carbonic anhydrase 4 and at Carbonic anhydrase 1 were 6.91 and 6.62, respectively.

As to `Cn1nc(S(N)(=O)=O)s/c1=N/C(=O)CN(CCOCCOCCN(CC(=O)O)CC(=O)O)CC(=O)O`, the pKi is 7.80 on Carbonic anhydrase 4 and 7.18 at Carbonic anhydrase 1.

Turning to `NS(=O)(=O)c1ccc(CCOC(=O)CNCCNCC(=O)O)cc1`, the negative logarithm of the Ki (pKi) at Carbonic anhydrase 4 is 6.48; at Carbonic anhydrase 1, 6.00.

Consider `NS(=O)(=O)c1nc2ccc(NC(=O)CN(CCN(CC(=O)O)CC(=O)O)CC(=O)O)cc2s1`, for which the values for the pKi on Carbonic anhydrase 4 and on Carbonic anhydrase 1 were 7.96 and 7.32, respectively.

Regarding `NS(=O)(=O)c1cccc(NC(=O)CN(CCOCCOCCN(CC(=O)O)CC(=O)O)CC(=O)O)c1`, the pKi was 6.30 at Carbonic anhydrase 4 and 5.13 on Carbonic anhydrase 1.

For `NS(=O)(=O)c1ccc(NC(=O)CN(CCN(CC(=O)O)CC(=O)O)CC(=O)O)cc1`, the negative-log Ki (pKi) was 6.48 at Carbonic anhydrase 4 and 5.20 at Carbonic anhydrase 1.

Take `NS(=O)(=O)c1ccccc1NC(=O)CN(CCN(CCN(CC(=O)O)CC(=O)O)CC(=O)O)CC(=O)O`: on Carbonic anhydrase 4, the pKi was 6.26.
